Data reported in PubChem BioAssay (NCI).
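Growth conditions: 96-well plates. Treatment: test compound, 48 hours, 5 concentrations. Analysis: linear interpolation between bracketing concentrations; unreached endpoints set to highest concentration. TGI is the concentration that stops growth completely.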

Assays:
Test in all cases: NCI-60 cell line screen, 48 h
HT29 colon = system: HT29 colon
HCT-15 colon = system: HCT-15 colon
CCRF-CEM leukemia = system: CCRF-CEM leukemia
OVCAR-3 ovarian = system: OVCAR-3 ovarian
UO-31 renal = system: UO-31 renal
DU-145 prostate = system: DU-145 prostate
COLO 205 colon = system: COLO 205 colon
TK-10 renal = system: TK-10 renal
OVCAR-8 ovarian = system: OVCAR-8 ovarian
ACHN renal = system: ACHN renal
HL-60(TB) leukemia = system: HL-60(TB) leukemia
M14 melanoma = system: M14 melanoma
MDA-N = system: MDA-N
NCI-H522 lung = system: NCI-H522 lung
PC-3 prostate = system: PC-3 prostate
KM12 colon = system: KM12 colon
SR leukemia = system: SR leukemia
MOLT-4 leukemia = system: MOLT-4 leukemia
SF-539 CNS = system: SF-539 CNS
A498 renal = system: A498 renal
RPMI-8226 leukemia = system: RPMI-8226 leukemia
EKVX NSCLC = system: EKVX NSCLC
NCI-H23 lung = system: NCI-H23 lung
LOX IMVI melanoma = system: LOX IMVI melanoma
MDA-MB-435 = system: MDA-MB-435
OVCAR-5 ovarian = system: OVCAR-5 ovarian
MCF7 breast = system: MCF7 breast
T-47D breast = system: T-47D breast
CAKI-1 renal = system: CAKI-1 renal
OVCAR-4 ovarian = system: OVCAR-4 ovarian
NCI-H226 lung = system: NCI-H226 lung
NCI-H460 lung = system: NCI-H460 lung
HS 578T breast = system: HS 578T breast
UACC-257 melanoma = system: UACC-257 melanoma
RXF 393 renal = system: RXF 393 renal
U251 CNS = system: U251 CNS
SK-MEL-5 melanoma = system: SK-MEL-5 melanoma
HOP-92 NSCLC = system: HOP-92 NSCLC
IGROV1 ovarian = system: IGROV1 ovarian
K-562 leukemia = system: K-562 leukemia
MDA-MB-231 breast = system: MDA-MB-231 breast
NCI/ADR-RES ovarian = system: NCI/ADR-RES ovarian
SNB-75 CNS = system: SNB-75 CNS
SK-OV-3 ovarian = system: SK-OV-3 ovarian
786-0 renal = system: 786-0 renal
SF-295 CNS = system: SF-295 CNS
HCC-2998 colon = system: HCC-2998 colon
SW-620 colon = system: SW-620 colon
SK-MEL-2 melanoma = system: SK-MEL-2 melanoma
SN12C renal = system: SN12C renal
A549 NSCLC = system: A549 NSCLC
HCT-116 colon = system: HCT-116 colon
BT-549 breast = system: BT-549 breast
SK-MEL-28 melanoma = system: SK-MEL-28 melanoma
HOP-62 NSCLC = system: HOP-62 NSCLC
UACC-62 melanoma = system: UACC-62 melanoma
SF-268 CNS = system: SF-268 CNS
MALME-3M melanoma = system: MALME-3M melanoma
SNB-19 CNS = system: SNB-19 CNS

COc1ccc(CCNC(=O)Cc2ccccc2CO)cc1OC
TGI (HT29 colon): > 100 µM | TGI (HCT-15 colon): > 100 µM | TGI (CCRF-CEM leukemia): > 100 µM | TGI (OVCAR-3 ovarian): > 100000 nM | TGI (UO-31 renal): > 100 µM | TGI (DU-145 prostate): > 100 µM | TGI (COLO 205 colon): > 100 µM | TGI (TK-10 renal): > 100 µM | TGI (OVCAR-8 ovarian): > 100 µM | TGI (ACHN renal): > 100 µM | TGI (HL-60(TB) leukemia): > 100 µM | TGI (M14 melanoma): > 100 µM | TGI (MDA-N): > 100 µM | TGI (NCI-H522 lung): > 100 µM | TGI (PC-3 prostate): > 100 µM | TGI (KM12 colon): > 100 µM | TGI (SR leukemia): > 100 µM | TGI (MOLT-4 leukemia): > 100 µM | TGI (SF-539 CNS): > 100 µM | TGI (A498 renal): > 100 µM | TGI (RPMI-8226 leukemia): > 100 µM | TGI (EKVX NSCLC): > 100 µM | TGI (NCI-H23 lung): > 100 µM | TGI (LOX IMVI melanoma): > 100 µM | TGI (MDA-MB-435): > 100 µM | TGI (OVCAR-5 ovarian): > 100 µM | TGI (MCF7 breast): > 100 µM | TGI (T-47D breast): > 100 µM | TGI (CAKI-1 renal): > 100 µM | TGI (OVCAR-4 ovarian): > 100 µM | TGI (NCI-H226 lung): > 100 µM | TGI (NCI-H460 lung): > 100 µM | TGI (HS 578T breast): > 100 µM | TGI (UACC-257 melanoma): > 100 µM | TGI (RXF 393 renal): > 100 µM | TGI (U251 CNS): > 100 µM | TGI (SK-MEL-5 melanoma): > 100 µM | TGI (HOP-92 NSCLC): > 100 µM | TGI (IGROV1 ovarian): > 100 µM | TGI (K-562 leukemia): > 100 µM | TGI (MDA-MB-231 breast): > 100000 nM | TGI (NCI/ADR-RES ovarian): > 100 µM | TGI (SNB-75 CNS): > 100 µM | TGI (SK-OV-3 ovarian): > 100 µM | TGI (786-0 renal): > 100000 nM | TGI (SF-295 CNS): > 100 µM | TGI (HCC-2998 colon): > 100 µM | TGI (SW-620 colon): > 100 µM | TGI (SK-MEL-2 melanoma): > 100 µM | TGI (SN12C renal): > 100 µM | TGI (A549 NSCLC): > 100 µM | TGI (HCT-116 colon): > 100 µM | TGI (BT-549 breast): > 100 µM | TGI (SK-MEL-28 melanoma): > 100 µM | TGI (HOP-62 NSCLC): > 100 µM | TGI (UACC-62 melanoma): > 100 µM | TGI (SF-268 CNS): > 100 µM

CC1OC(OC2C(O[C@H]3CC[C@@]4(C)C(=CC[C@H]5[C@@H]6C[C@@H]7O[C@]8(CC[C@@H](C)CO8)[C@@H](C)[C@@H]7[C@@]6(C)CC[C@@H]54)C3)OC(CO)C(O)C2OC2OC(CO)C(O)C(O)C2O)C(O)C(O)C1O (some centres not stated)
TGI (HT29 colon): > 100 µM | TGI (HCT-15 colon): 4.03 µM | TGI (CCRF-CEM leukemia): > 100 µM | TGI (OVCAR-3 ovarian): 2690 nM | TGI (UO-31 renal): 3.5 µM | TGI (DU-145 prostate): 4.09 µM | TGI (COLO 205 colon): 3.41 µM | TGI (TK-10 renal): 4.01 µM | TGI (OVCAR-8 ovarian): > 100 µM | TGI (ACHN renal): 3.29 µM | TGI (MDA-N): 3.17 µM | TGI (NCI-H522 lung): 3.42 µM | TGI (PC-3 prostate): 3.55 µM | TGI (KM12 colon): 4.49 µM | TGI (SR leukemia): > 100 µM | TGI (MOLT-4 leukemia): > 23.3 µM | TGI (SF-539 CNS): 5.23 µM | TGI (A498 renal): 3.15 µM | TGI (EKVX NSCLC): > 21.9 µM | TGI (NCI-H23 lung): 3.44 µM | TGI (LOX IMVI melanoma): 5.9 µM | TGI (MDA-MB-435): 3.73 µM | TGI (OVCAR-5 ovarian): > 20.6 µM | TGI (MCF7 breast): 4.55 µM | TGI (T-47D breast): 4.65 µM | TGI (CAKI-1 renal): 5.07 µM | TGI (OVCAR-4 ovarian): 3.31 µM | TGI (MALME-3M melanoma): 3.26 µM | TGI (HS 578T breast): 3.74 µM | TGI (UACC-257 melanoma): 3.65 µM | TGI (RXF 393 renal): 4.43 µM | TGI (SK-MEL-5 melanoma): 4.36 µM | TGI (HOP-92 NSCLC): 3.68 µM | TGI (IGROV1 ovarian): 3.3 µM | TGI (K-562 leukemia): > 100 µM | TGI (MDA-MB-231 breast): 2980 nM | TGI (NCI/ADR-RES ovarian): 4.93 µM | TGI (SNB-75 CNS): 3.7 µM | TGI (SK-OV-3 ovarian): 3.19 µM | TGI (786-0 renal): 2970 nM | TGI (SF-295 CNS): 4.41 µM | TGI (HCC-2998 colon): 3.34 µM | TGI (SW-620 colon): 4.39 µM | TGI (SK-MEL-2 melanoma): 3.45 µM | TGI (A549 NSCLC): 3.35 µM | TGI (BT-549 breast): 4.73 µM | TGI (SNB-19 CNS): 3.46 µM | TGI (SK-MEL-28 melanoma): 3.68 µM | TGI (HOP-62 NSCLC): 4.21 µM | TGI (SF-268 CNS): 3.7 µM
